Molecular target: T1, SIRT1 (Homo sapiens, UniProt Q96EB6)
T1 sequence (Q96EB6 1-747): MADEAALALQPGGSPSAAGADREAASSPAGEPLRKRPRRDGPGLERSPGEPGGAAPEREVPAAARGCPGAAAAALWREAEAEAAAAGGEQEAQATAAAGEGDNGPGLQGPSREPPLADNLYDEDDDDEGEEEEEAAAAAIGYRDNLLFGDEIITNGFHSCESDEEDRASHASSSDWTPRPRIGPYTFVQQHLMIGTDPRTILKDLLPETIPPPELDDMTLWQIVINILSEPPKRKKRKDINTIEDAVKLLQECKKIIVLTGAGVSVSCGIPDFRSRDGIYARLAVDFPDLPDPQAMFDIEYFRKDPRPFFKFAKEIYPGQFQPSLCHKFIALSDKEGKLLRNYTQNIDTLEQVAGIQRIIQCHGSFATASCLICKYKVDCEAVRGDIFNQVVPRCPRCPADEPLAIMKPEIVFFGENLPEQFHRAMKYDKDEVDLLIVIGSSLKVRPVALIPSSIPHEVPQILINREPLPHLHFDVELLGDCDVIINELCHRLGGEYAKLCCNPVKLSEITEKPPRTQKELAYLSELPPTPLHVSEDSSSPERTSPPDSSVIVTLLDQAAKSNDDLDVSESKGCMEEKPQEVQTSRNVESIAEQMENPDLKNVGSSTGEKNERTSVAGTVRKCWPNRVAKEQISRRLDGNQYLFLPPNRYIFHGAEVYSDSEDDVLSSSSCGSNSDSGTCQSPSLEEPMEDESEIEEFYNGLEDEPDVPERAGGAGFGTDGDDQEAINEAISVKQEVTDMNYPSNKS
Experiment: Mass spectrometry based assay to identify modulators of SIRT1 activity (deacetylation of p53-based acetylated peptide substrate)
Format: biochemical
Settings: for Emax: 25 min, SIRT1 activation, read-out: % FOLD ACT. (percent maximum fold activation)
In short: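 Deacetylation of a modified p53 acetyl-lysine peptide ([…], 5TMR-labelled, Nle for Met) by 10 nM N-His SIRT1 with 120 μM βNAD+, pH 8, 25 min, 25 °C. Substrate and product masses measured by MS after formic acid quench; nicotinamide defines maximal inhibition.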

Row | EC1.5 (concentration giving 1.5-fold activation) | Emax | % FOLD ACT. (percent maximum fold activation) | SMILES
1 | < 1 µM | > 200% |  | O=C(Nc1cccc(OC[C@H](O)CO)n1)N1CCCc2ccc(-c3ccc4c(c3)CCO4)nc21 [Compound 702]
2 | < 1 µM | > 200% |  | Cc1nc(NC(=O)N2CCCOc3ccc(-c4cccc(Cl)c4)nc32)sc1C [Compound 703]
3 | 1 to 25 µM | ≤ 200% |  | Cc1cnc(NC(=O)N2CCCOc3ccc(-c4cccc(Cl)c4)nc32)s1 [Compound 704]
4 | 1 to 25 µM | > 200% |  | Cn1ccc(NC(=O)N2CCCOc3ccc(-c4cccc(Cl)c4)nc32)n1 [Compound 705]
5 | > 25 µM | ≤ 200% |  | Cn1nccc1NC(=O)N1CCCOc2ccc(-c3cccc(Cl)c3)nc21 [Compound 706]
6 | 1 to 25 µM | > 200% |  | Cn1cc(NC(=O)N2CCCOc3ccc(-c4cccc(Cl)c4)nc32)cn1 [Compound 708]
7 | > 25 µM | ≤ 200% |  | Cc1csc(NC(=O)N2CCOc3cnc(-c4cccc(C(F)(F)F)c4)nc32)n1 [Compound 709, N-(4-methylthiazol-2-yl)-2-(3-(trifluoromethyl)phenyl)-6H-pyrimido[5,4-b][1,4]oxazine-8(7H)-carboxamide]
8 | > 25 µM | ≤ 200% |  | Cc1cc(C)nc(NC(=O)N2CCOc3cnc(-c4cccc(C(F)(F)F)c4)nc32)c1 [Compound 712]
9 | 1 to 25 µM | ≤ 200% |  | O=C(Nc1ccncn1)N1CCOc2cnc(-c3cccc(C(F)(F)F)c3)nc21 [Compound 714]
10 | 1 to 25 µM | ≤ 200% |  | O=C(Nc1ccncc1)N1CCOc2cnc(-c3cccc(C(F)(F)F)c3)nc21 [Compound 715]
11 | 1 to 25 µM | > 200% |  | O=C(Nc1ccncc1F)N1CCOc2cnc(-c3cccc(C(F)(F)F)c3)nc21 [Compound 716]
12 | 1 to 25 µM | ≤ 200% |  | Cc1cc(NC(=O)N2CCOc3c(N4CCCC4)nc(-c4cccc(F)c4)nc32)cc(C)n1 [Compound 718]
13 | 1 to 25 µM | > 200% |  | O=C1CCN(C(=O)Nc2ccncc2)c2nc(-c3cccc(C(F)(F)F)c3)ccc21 [Compound 719, 4-oxo-N-(pyridin-4-yl)-7-(3-(trifluoromethyl)phenyl)-3,4-dihydro-1,8-naphthyridine-1(2H)-carboxamide]
14 | 1 to 25 µM | ≤ 200% |  | O=C(Nc1ccncc1)N1CCOc2cnc(-c3cccc(Cl)c3)nc21 [Compound 720]
15 | 1 to 25 µM | > 200% |  | O=C(Nc1ccncc1)N1CCOc2cnc(-c3cccc(N4CCOCC4)c3)nc21 [Compound 721]
16 | 1 to 25 µM | > 200% |  | O=C(Nc1ccncc1)N1CCOc2cnc(-c3cccc(N4CCCC4)c3)nc21 [Compound 722]
17 | 1 to 25 µM | ≤ 200% |  | O=C(Nc1ccncc1)N1CCOc2ncc(-c3cccc(C(F)(F)F)c3)nc21 [Compound 723]
18 | 1 to 25 µM | > 200% |  | O=C(Nc1ccncc1F)N1CCOc2ncc(-c3cccc(C(F)(F)F)c3)nc21 [Compound 724]
19 | 1 to 25 µM | > 200% |  | Cc1cncc(NC(=O)N2CCOc3ncc(-c4cccc(C(F)(F)F)c4)nc32)c1 [Compound 725]
20 | < 1 µM | > 200% |  | Cc1cc(NC(=O)N2CCOc3ncc(-c4cccc(C(F)(F)F)c4)nc32)cc(C)n1 [Compound 726]
21 | < 1 µM | ≤ 200% |  | Cc1cc(NC(=O)N2CCOc3c(N(C)C)nc(-c4cccc(F)c4)nc32)cc(C)n1 [Compound 727]
22 | 1 to 25 µM | > 200% |  | O=C(Nc1ccncc1)N1CCCCc2ccc(-c3cccc(Cl)c3)nc21 [Compound 728, 2-(3-chlorophenyl)-N-(pyridin-4-yl)-7,8-dihydro-5H-pyrido[2,3-b]azepine-9(6H)-carboxamide]
23 | 1 to 25 µM | > 200% |  | O=C1CCN(C(=O)Nc2ccccn2)c2nc(-c3cccc(C(F)(F)F)c3)ccc21 [Compound 729]

Row | EC1.5 (concentration giving 1.5-fold activation) | Emax | % FOLD ACT. (percent maximum fold activation) | SMILES
24 | 1 to 25 µM | ≤ 200% |  | O=C1CCN(C(=O)Nc2ccc(F)cn2)c2nc(-c3cccc(C(F)(F)F)c3)ccc21 [Compound 730]
25 | > 25 µM | ≤ 200% |  | O=C(Nc1ccnc(OC[C@H](O)CO)n1)N1CCOc2ccc(-c3cccc(C(F)(F)F)c3)nc21 [Compound 731]
26 | > 25 µM | ≤ 200% |  | O=C(Nc1ccnc(OC[C@@H](O)CO)n1)N1CCOc2ccc(-c3cccc(C(F)(F)F)c3)nc21 [Compound 732]
27 | > 25 µM | ≤ 200% |  | Cc1cccc(NC(=O)N2CCCCc3ccc(-c4cccc(Cl)c4)nc32)n1 [Compound 733]
28 | 1 to 25 µM | > 200% |  | O=C(Nc1ccncc1F)N1CCCCc2ccc(-c3cccc(Cl)c3)nc21 [Compound 734]
29 | > 25 µM | ≤ 200% |  | O=C(Nc1ccc(F)cn1)N1CCCCc2ccc(-c3cccc(Cl)c3)nc21 [Compound 735]
30 | > 25 µM | ≤ 200% |  | CN(C)c1nc(-c2cccc(F)c2)nc2c1OCCN2C(=O)Nc1ccncc1 [Compound 736, 4-(dimethylamino)-2-(3-fluorophenyl)-N-(pyridin-4-yl)-6H-pyrimido[5,4-b][1,4]oxazine-8(7H)-carboxamide]
31 | > 25 µM | ≤ 200% |  | O=C(Nc1ccncc1)N1CCOc2c(N3CCCC3)nc(-c3cccc(F)c3)nc21 [Compound 737]
32 | > 25 µM | ≤ 200% |  | O=C(Nc1ccncc1)N1CCOc2c(N3CCNCC3)nc(-c3cccc(F)c3)nc21 [Compound 738, 2-(3-fluorophenyl)-4-(piperazin-1-yl)-N-(pyridin-4-yl)-6H-pyrimido[5,4-b][1,4]oxazine-8(7H)-carboxamide]
33 | 1 to 25 µM | ≤ 200% |  | Cc1cc(NC(=O)N2CCOc3c(N4CCOCC4)nc(-c4cccc(F)c4)nc32)cc(C)n1 [Compound 739]
34 | > 25 µM | ≤ 200% |  | Cc1csc(NC(=O)N2CCOc3ncc(-c4cccc(C(F)(F)F)c4)nc32)n1 [Compound 740, N-(4-methylthiazol-2-yl)-6-(3-(trifluoromethyl)phenyl)-2H-pyrazino[2,3-b][1,4]oxazine-4(3H)-carboxamide]
35 | 1 to 25 µM | > 200% |  | Cc1cc(C)nc(NC(=O)N2CCOc3ncc(-c4cccc(C(F)(F)F)c4)nc32)c1 [Compound 741]
36 | < 1 µM | > 200% |  | O=C(Nc1cccc(OCC(O)CO)n1)N1CCOc2ncc(-c3cccc(C(F)(F)F)c3)nc21 (stereo not drawn) [Compound 742]
37 | 1 to 25 µM | > 200% |  | O=C(Nc1ccncc1)N1CCC(F)(F)c2ccc(-c3cccc(C(F)(F)F)c3)nc21 [Compound 743, 4,4-difluoro-N-(pyridin-4-yl)-7-(3-(trifluoromethyl)phenyl)-3,4-dihydro-1,8-naphthyridine-1(2H)-carboxamide]
38 | > 25 µM | ≤ 200% |  | Cc1cnccc1NC(=O)N1CCC(F)(F)c2ccc(-c3cccc(C(F)(F)F)c3)nc21 [Compound 744]
39 | 1 to 25 µM | ≤ 200% |  | O=C(Nc1ccncc1F)N1CCC(F)(F)c2ccc(-c3cccc(C(F)(F)F)c3)nc21 [Compound 746]
40 | 1 to 25 µM | > 200% |  | O=C1CCCN(C(=O)Nc2cccnc2)c2nc(-c3cccc(Cl)c3)ccc21 [Compound 747, 2-(3-chlorophenyl)-5-oxo-N-(pyridin-3-yl)-7,8-dihydro-5H-pyrido[2,3-b]azepine-9(6H)-carboxamide]
41 | < 1 µM | > 200% |  | O=C(Nc1ccnc(N2CCC2)c1)N1CCOc2ncc(-c3cccc(C(F)(F)F)c3)nc21 [Compound 748]
42 | 1 to 25 µM |  | B (Fold Activation≦200%) | O=C(Nc1ccncc1)N1CCOc2c(N3CCNCC3)nc(-c3cccc(F)c3)nc21 [Compound 751]
43 | 1 to 25 µM | > 200% |  | Cc1cc(NC(=O)N2CCOc3c(N4CCNCC4)nc(-c4cccc(F)c4)nc32)cc(C)n1 [Compound 752]
44 | 1 to 25 µM | > 200% |  | O=C(Nc1cncnc1)N1CCC(F)(F)c2ccc(-c3cccc(C(F)(F)F)c3)nc21 [Compound 753]
45 | 1 to 25 µM | ≤ 200% |  | O=C(Nc1ccccn1)N1CCCCc2ccc(-c3cccc(Cl)c3)nc21 [Compound 754]
